Values of other authors, collected in patent publication US11890375B2, “Ophthalmic solution of difluprednate” (SUN PHARMA ADVANCED RESEARCH COMPANY LIMITED, priority 2015, dated 2024).

solubility in aqueous vehicle: practically insoluble
Compound: CCCC(=O)O[C@]1(C(=O)COC(C)=O)CC[C@H]2[C@@H]3C[C@H](F)C4=CC(=O)C=C[C@]4(C)[C@@]3(F)[C@@H](O)C[C@@]21C [Difluprednate]
